Reference: ChEMBL document CHEMBL1201862, “PubChem BioAssay data set” (2004)
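96-well plates; 48 h exposure; 5 concentrations. Endpoints by linear interpolation between flanking doses. Not reached: highest tested concentration assigned. GI50: concentration for 50% inhibition of growth.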 Calls of active or inactive are those of the source. Cut-off read from the data, not from the text of the source: active = GI50 up to about 1.1 µM and inactive = higher.

Legend:
Assay in all cases: inhibition of tumour cell growth, NCI panel, 48 h
[1] = test system: A549
[2] = test system: CAKI-1
[3] = test system: CCRF-CEM
[4] = test system: HCT-116
[5] = test system: HCT-15
[6] = test system: HOP-62
[7] = test system: HOP-92
[8] = test system: IGROV-1
[9] = test system: NCI-H460
[10] = test system: OVCAR-8
[11] = test system: RPMI-8226
[12] = test system: SF-268
[13] = test system: SK-MEL-28
[14] = test system: SK-MEL-5
[15] = test system: SR
[16] = test system: SW-620
[17] = test system: TK-10
[18] = test system: A498
[19] = test system: SNB-75

## CCCCCCCCCCCCCCCc1nnc(SCC(=O)O)[nH]1
[1]
  GI50: 79.1 µM (inactive)
[2]
  GI50: 63.2 µM (inactive)
[3]
  GI50: 24.2 µM (inactive)
[4]
  GI50: 92.7 µM (inactive)
[5]
  GI50: 31.6 µM
[6]
  GI50: > 100 µM (inactive)
[7]
  GI50: 32.1 µM (inactive)
[8]
  GI50: 36.1 µM (inactive)
[9]
  GI50: > 100 µM (inactive)
[10]
  GI50: 40.8 µM (inactive)
[11]
  GI50: 78.2 µM (inactive)
[12]
  GI50: 42 µM (inactive)
[13]
  GI50: 80.7 µM (inactive)
[14]
  GI50: > 100 µM (inactive)
[15]
  GI50: 60 µM (inactive)
[16]
  GI50: 95.5 µM (inactive)
[17]
  GI50: 13.2 µM (inactive)

## COC(=O)Cc1c([C@@]2(C)CCCC(C)(C)C2)ccc2c1C(=O)OC2
[18]
  GI50: 25.5 µM (inactive)
[1]
  GI50: 9.84 µM (inactive)
[2]
  GI50: > 10 µM (inactive)
[3]
  GI50: 6.49 µM (inactive)
[4]
  GI50: 5.64 µM (inactive)
[5]
  GI50: 6.44 µM
[7]
  GI50: 3.01 µM (inactive)
[8]
  GI50: 15 µM (inactive)
[9]
  GI50: 8.83 µM (inactive)
[10]
  GI50: 15.3 µM (inactive)
[11]
  GI50: 2.7 µM (inactive)
[13]
  GI50: 13.1 µM (inactive)
[14]
  GI50: 7.36 µM (inactive)
[19]
  GI50: 14.3 µM (inactive)
[16]
  GI50: 18.9 µM (inactive)
[17]
  GI50: 17.9 µM (inactive)

## COc1ccc(C[C@]23CCC(=O)N2CCc2cc(OC)c(O)cc23)cc1O
[18]
  GI50: > 100 µM (inactive)
[1]
  GI50: > 100 µM (inactive)
[2]
  GI50: > 100 µM (inactive)
[3]
  GI50: > 100 µM (inactive)
[4]
  GI50: > 100 µM (inactive)
[5]
  GI50: > 100 µM
[6]
  GI50: > 100 µM (inactive)
[7]
  GI50: > 100 µM (inactive)
[8]
  GI50: > 100 µM (inactive)
[9]
  GI50: > 100 µM (inactive)
[10]
  GI50: 30 µM (inactive)
[11]
  GI50: > 100 µM (inactive)
[12]
  GI50: > 100 µM (inactive)
[13]
  GI50: > 100 µM (inactive)
[14]
  GI50: > 100 µM (inactive)
[19]
  GI50: > 100 µM (inactive)
[16]
  GI50: > 100 µM (inactive)
[17]
  GI50: > 100 µM (inactive)

## CCCCc1c2c(nc3c1CC/C(=C\c1ccccc1)C3=O)CCCC2
[1]
  GI50: 12.3 µM (inactive)
[3]
  GI50: 3.43 µM (inactive)
[4]
  GI50: 4.9 µM (inactive)
[5]
  GI50: 3.3 µM
[6]
  GI50: 4.62 µM (inactive)
[8]
  GI50: 4.61 µM (inactive)
[9]
  GI50: 4.89 µM (inactive)
[10]
  GI50: 1.98 µM (inactive)
[11]
  GI50: 2.88 µM (inactive)
[12]
  GI50: 3.49 µM (inactive)
[13]
  GI50: 3.37 µM (inactive)
[19]
  GI50: 11 µM (inactive)
[15]
  GI50: 3.54 µM (inactive)
[16]
  GI50: 1.99 µM (inactive)
[17]
  GI50: 9.33 µM (inactive)

## COc1cc2c(cc1O)C=NCC2
[18]
  GI50: 94.2 µM (inactive)
[1]
  GI50: > 100 µM (inactive)
[2]
  GI50: > 100 µM (inactive)
[3]
  GI50: 50 µM (inactive)
[4]
  GI50: > 100 µM (inactive)
[5]
  GI50: > 100 µM
[7]
  GI50: > 100 µM (inactive)
[8]
  GI50: > 100 µM (inactive)
[9]
  GI50: > 100 µM (inactive)
[10]
  GI50: > 100 µM (inactive)
[11]
  GI50: > 100 µM (inactive)
[12]
  GI50: > 100 µM (inactive)
[13]
  GI50: > 100 µM (inactive)
[14]
  GI50: 63.5 µM (inactive)
[19]
  GI50: > 100 µM (inactive)
[16]
  GI50: > 100 µM (inactive)
[17]
  GI50: > 100 µM (inactive)

## CC1(C)C(=O)C(C)(C)C1=NN
[1]
  GI50: > 100 µM (inactive)
[2]
  GI50: > 100 µM (inactive)
[4]
  GI50: > 100 µM (inactive)
[5]
  GI50: > 100 µM
[6]
  GI50: > 100 µM (inactive)
[7]
  GI50: > 100 µM (inactive)
[8]
  GI50: > 100 µM (inactive)
[9]
  GI50: > 100 µM (inactive)
[10]
  GI50: > 100 µM (inactive)
[11]
  GI50: > 100 µM (inactive)
[12]
  GI50: > 100 µM (inactive)
[13]
  GI50: > 100 µM (inactive)
[14]
  GI50: > 100 µM (inactive)
[19]
  GI50: > 100 µM (inactive)
[15]
  GI50: > 100 µM (inactive)
[16]
  GI50: > 100 µM (inactive)
[17]
  GI50: > 100 µM (inactive)

## COC(=O)[C@@H]1C[C@H]2OC(=O)CC[C@]2(C)O[C@H]1[C@H]1O[C@@](C)(O)CCC[C@H]1C
[1]
  GI50: > 50 µM (inactive)
[2]
  GI50: > 50 µM (inactive)
[3]
  GI50: 14.5 µM (inactive)
[4]
  GI50: > 50 µM (inactive)
[5]
  GI50: > 50 µM
[6]
  GI50: > 50 µM (inactive)
[8]
  GI50: > 50 µM (inactive)
[9]
  GI50: > 50 µM (inactive)
[10]
  GI50: > 50 µM (inactive)
[11]
  GI50: > 50 µM (inactive)
[12]
  GI50: > 50 µM (inactive)
[13]
  GI50: > 50 µM (inactive)
[14]
  GI50: > 50 µM (inactive)
[15]
  GI50: > 50 µM (inactive)
[16]
  GI50: > 50 µM (inactive)
[17]
  GI50: > 50 µM (inactive)

## COc1cccc(NC(=O)CSc2nnc(-c3ccc(NC(C)=O)cc3)o2)c1
[1]
  GI50: > 100 µM (inactive)
[2]
  GI50: > 100 µM (inactive)
[3]
  GI50: 79.1 µM (inactive)
[4]
  GI50: > 100 µM (inactive)
[5]
  GI50: > 100 µM
[6]
  GI50: > 100 µM (inactive)
[7]
  GI50: > 100 µM (inactive)
[8]
  GI50: 50 µM (inactive)
[9]
  GI50: > 100 µM (inactive)
[10]
  GI50: > 100 µM (inactive)
[11]
  GI50: > 100 µM (inactive)
[12]
  GI50: > 100 µM (inactive)
[13]
  GI50: > 100 µM (inactive)
[14]
  GI50: > 100 µM (inactive)
[19]
  GI50: 30.5 µM (inactive)
[15]
  GI50: 90.2 µM (inactive)
[16]
  GI50: > 100 µM (inactive)
[17]
  GI50: > 100 µM (inactive)
